Data: ChEMBL document CHEMBL1201862, “PubChem BioAssay data set” (2004)
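Values below derive from 48-hour exposures of cells grown in 96-well plates, with endpoints linearly interpolated between the two concentrations bracketing the appropriate inhibition level. Abbreviation: GI50, concentration required for 50% inhibition of growth.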 Calls of active or inactive are those of the source. Cut-off read from the data, not from the text of the source: active = GI50 up to about 1.1 µM and inactive = higher.

Key:
Test in all cases: inhibition of tumour cell growth, NCI panel, 48 h
[1] = test system: OVCAR-8
[2] = test system: NCI-H226
[3] = test system: HOP-62
[4] = test system: SN12C
[5] = test system: TK-10
[6] = test system: RPMI-8226
[7] = test system: SW-620
[8] = test system: EKVX
[9] = test system: SF-539
[10] = test system: UO-31
[11] = test system: SF-295
[12] = test system: HT-29
[13] = test system: SNB-19
[14] = test system: NCI-H460
[15] = test system: OVCAR-3
[16] = test system: M14
[17] = test system: OVCAR-4

Measured: GI50

CC1(C)CC(C)(C)CC(O)(C2(O)CC(C)(C)CC(C)(C)C2)C1
inactive: [1] > 100 µM | [2] > 100 µM | [3] > 100 µM | [4] > 100 µM | [5] > 100 µM | [6] > 100 µM | [7] > 100 µM | [8] > 100 µM | [9] > 100 µM | [10] > 100 µM | [11] > 100 µM | [12] > 100 µM | [13] > 100 µM | [14] > 100 µM | [15] > 100 µM | [16] > 100 µM

O=C(CO)CC(=O)C(=O)Nc1nc([N+](=O)[O-])cs1
inactive: [1] > 100 µM | [2] > 100 µM | [3] > 100 µM | [4] > 100 µM | [5] > 100 µM | [6] > 100 µM | [7] > 100 µM | [8] > 100 µM | [17] > 100 µM | [9] > 100 µM | [10] > 100 µM | [11] > 100 µM | [12] > 100 µM | [13] > 100 µM | [14] > 100 µM | [15] > 100 µM | [16] > 100 µM

Cc1nc2c(n1Cc1ccc(F)cc1)C(=O)c1ccccc1C2=O
inactive: [1] 35.4 µM | [2] 32.5 µM | [3] 27.7 µM | [4] 54 µM | [5] > 100 µM | [7] 41.3 µM | [8] 71 µM | [17] 31.1 µM | [9] 6.98 µM | [10] > 100 µM | [11] 44.2 µM | [12] 9.44 µM | [13] > 100 µM | [14] 4.07 µM | [15] 15.1 µM | [16] > 100 µM

CC1=C(c2cc(C(=O)Nc3cccc(C(F)(F)F)c3)ncn2)Sc2ccccc2N1
inactive: [1] > 100 µM | [2] > 100 µM | [3] > 100 µM | [4] > 100 µM | [5] > 100 µM | [6] > 100 µM | [7] > 100 µM | [8] > 100 µM | [17] > 100 µM | [9] > 100 µM | [10] > 100 µM | [11] > 100 µM | [12] > 100 µM | [13] > 100 µM | [14] > 100 µM | [15] > 100 µM | [16] > 100 µM

O=S(=O)(c1ccccc1)C(CN1CCCCC1)S(=O)(=O)c1ccccc1
inactive: [1] > 100 µM | [2] > 100 µM | [3] > 100 µM | [4] > 100 µM | [5] > 100 µM | [6] > 100 µM | [7] > 100 µM | [17] > 100 µM | [9] > 100 µM | [10] > 100 µM | [11] > 100 µM | [12] > 100 µM | [13] > 100 µM | [14] > 100 µM | [15] > 100 µM | [16] > 100 µM

O=C(/C=C/c1ccccc1Cl)NC1C=Nc2ccc([N+](=O)[O-])cc2NC1 (configuration not stated)
inactive: [1] 55.8 µM | [2] > 100 µM | [3] > 100 µM | [4] 98.6 µM | [5] > 100 µM | [6] 30.8 µM | [7] 4.25 µM | [8] > 100 µM | [17] 78.3 µM | [9] > 100 µM | [10] 24.4 µM | [11] > 100 µM | [13] > 100 µM | [14] 47 µM | [15] 42.3 µM | [16] > 100 µM

Cc1ccc(NC(=O)C(=O)C(C(=O)c2ccc3ccccc3c2)C2OC(=O)c3ccccc32)cc1C (configuration not stated)
inactive: [1] 12.8 µM | [2] 3.14 µM | [3] 14.7 µM | [4] 18.9 µM | [5] 34.8 µM | [6] 4.7 µM | [7] 14.7 µM | [8] 63.5 µM | [17] 13.1 µM | [9] 3.02 µM | [10] 11.9 µM | [12] 33 µM | [13] 5.31 µM | [14] 5.74 µM | [15] 10.9 µM | [16] 15.6 µM

CC(=O)[O-].Cc1ncc(CO)c(/C=N/NC(N)=S)c1[O-].[Zn+2]
inactive: [1] > 100 µM | [2] > 100 µM | [3] > 100 µM | [4] > 100 µM | [5] > 100 µM | [6] > 100 µM | [7] > 100 µM | [8] > 100 µM | [17] > 100 µM | [9] > 100 µM | [10] > 100 µM | [11] > 100 µM | [12] > 100 µM | [13] > 100 µM | [14] > 100 µM | [15] > 100 µM | [16] > 100 µM

COc1ccc(OC)c2[nH]c(Sc3c([N+](=O)[O-])ncn3C)nc12
inactive: [1] 17.6 µM | [2] 14.2 µM | [3] > 100 µM | [4] 19.9 µM | [5] 23.6 µM | [7] 24.5 µM | [8] 23.1 µM | [17] 22.9 µM | [9] 18 µM | [10] 28.6 µM | [11] 41.8 µM | [12] 28.4 µM | [13] > 10 µM | [14] 38.1 µM | [15] 16.8 µM | [16] 20.3 µM
